Molecular target: T1, cholecystokinin-2 receptor (CCK-2R) (Rattus norvegicus, UniProt P30553)
T1 construct: host or cells: AR42J (rat pancreatic cancer cells)
T1 sequence (P30553 1-452): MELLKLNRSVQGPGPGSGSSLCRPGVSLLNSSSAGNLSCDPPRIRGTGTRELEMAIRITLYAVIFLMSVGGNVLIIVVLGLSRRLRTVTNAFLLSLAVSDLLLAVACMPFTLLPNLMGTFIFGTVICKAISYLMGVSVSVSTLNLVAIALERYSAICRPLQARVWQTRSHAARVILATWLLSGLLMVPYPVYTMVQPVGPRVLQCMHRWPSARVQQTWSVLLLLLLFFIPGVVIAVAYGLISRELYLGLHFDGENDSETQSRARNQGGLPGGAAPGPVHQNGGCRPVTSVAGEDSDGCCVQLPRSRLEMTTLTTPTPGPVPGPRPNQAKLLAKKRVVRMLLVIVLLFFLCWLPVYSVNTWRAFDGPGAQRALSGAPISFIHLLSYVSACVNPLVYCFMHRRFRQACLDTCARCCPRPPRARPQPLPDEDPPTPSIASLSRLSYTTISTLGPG
Experiment: CCK-2R affinity (apparent IC50), competitive binding on AR42J cells
Settings: natLu-labeled peptide, 3 h, 37 °C, [177Lu]Lu-DOTA-PP-F11N (0.3 pmol) as radiolabeled reference
Protocol: On the next day, medium was removed, cells were washed with PBS (300 µL) and fresh nutrient medium supplemented with 5% BSA (200 µL) was added. The peptide of interest (25 µL in nutrient medium) in increasing concentrations (10^−10 to 10^−4 M) in triplicate as well as [^177Lu]Lu-DOTA-PP-F11N (25 μL, 0.3 pmol) were added to the cells and the assay was incubated for 3 h at 37 °C. Subsequently, the supernatant was collected, cells were washed with PBS (300 µL) and both fractions were unified. Cell lysis was conducted by addition of NaOH (300 µL, 1 N) and incubation for at least 20 min at room temperature. The supernatant was collected, the respective wells were washed with NaOH (300 µL, 1 N) and both fractions were unified. Radioactivity of all fractions collected was quantified using a γ-counter (PerkinElmer Inc., Waltham, United States). Apparent half-maximal inhibitory concentration (IC50) was calculated via the GraphPad PRISM software (GraphPad Software Inc., La Jolla, United States).
CCK-2R positive rat pancreatic cancer cells AR42J (CLS GmbH, Eppelheim, Germany) were cultivated in monolayers in CELLSTAR® cell culture flask (Greiner Bio-One GmbH, Frickenhausen, Germany) at 37°C in a humidified atmosphere (5% CO2). Therefor, a HERAcell 150i-Incubator (Thermo Fisher Scientific Inc., Waltham, United States) was used. RPMI 1640 medium, supplemented with 5 mM L-Gln 5 mL non-essential amino acids (100×) and 10% FCS, was used for cell nutrition. Detachment of the cells for passaging was conducted with a Dulbecco’s PBS solution supplemented with 0.1% EDTA (v/v). Cell numbers were determined with a Neubauer hemocytometer (Paul Marienfeld, Lauda-Königshofen, Germany). All operations requiring sterile conditions, were accomplished using a MSC-Advantage safety workbench (Thermo Fisher Scientific Inc., Waltham, United States).
Table S1. Affinity, lipophilicity and human serum albumin binding data of the compounds evaluated. Affinity data were determined on AR42J cells (2.0 × 10^5 cells/well) and [^177Lu]Lu-DOTA-PP-F11N (0.3 pmol/well) as radiolabeled reference (3 h, 37 °C, RPMI 1640, 5 mM L-Gln, 5 mL non-essential amino acids (100×), 10% FCS + 5% BSA (v/v)).

CCCC[C@@H](C(=O)N[C@@H](CC(=O)O)C(=O)N[C@@H](Cc1cccc2ccccc12)C(N)=O)N(C)C(=O)[C@H](Cc1c[nH]c2ccccc12)NC(=O)CCOCCOCCOCCOCCNC(=O)CC[C@@H](NC(=O)CCOCCOCCOCCOCCOCCNC(=O)CC[C@@H](NC(=O)[C@@H](CNC(=O)C[N+](C)(C)Cc1ccc([Si](F)(C(C)(C)C)C(C)(C)C)cc1)NC(=O)CN1CCN(CC(=O)O)CCN(CC(=O)O)CCN(CC(=O)O)CC1)C(=O)O)C(=O)O [[^nat/177Lu]Lu-DOTA-rhCCK-91, DOTA-D-Dap(SiFAlin)-D-γ-Glu-(PEG)4-D-γ-Glu-(PEG)3-Trp-(N-Me)Nle-Asp-1-Nal-NH2, metal not drawn] was tested, and the IC50 (n = 3, listed as [^177/natLu]Lu-DOTA-rhCCK-91) was 8.6 ± 0.7 nM and the IC50 (n = 3, listed as [^natLu]Lu-DOTA-rhCCK-91) was 8.56 ± 0.66 nM.
